{"source": "patent US20210395694A1", "about": "“METHOD FOR PROMOTING PRODUCTION OF EXOSOMES AND/OR EXTRACELLULAR VESICLES” (ExoCoBio Inc., priority 2019, published 2021)", "key": {"[1]": {"system": "Human adipose-derived stem cells", "test": "Nanoparticle tracking analysis (NTA) of exosomes isolated from conditioned medium of stem cells cultured with ascorbic acid", "format": "cell-based", "procedure": "Human adipose-derived stem cells were suspended in a-MEM culture medium containing 10% fetal bovine serum (FBS), 100 units/mL penicillin and 100 μg/mL streptomycin, and then seeded into a 6-well plate at a density of 6,000 cells/cm^2 and cultured in an incubator at 37° C. under 5% CO2. For ascorbic acid-treated groups, 24 hours after seeding, ascorbic acid was added to the culture medium at a concentration of 10 μg/mL, 30 μg/mL and 100 μg/mL, respectively. In all of the ascorbic acid-treated groups and the untreated group, when the adipose-derived stem cells reached a confluency of 80% or more, the culture medium was replaced with α-MEM medium containing 100 units/mL penicillin and 100 μg/mL streptomycin (hereinafter referred to as “serum-free medium” or “SFM”), or α-MEM medium containing 2% FBS from which FBS-derived exosomes and extracellular vesicles have been removed, 100 units/mL penicillin and 100 μg/mL streptomycin (hereinafter referred to as “extracellular vesicles-depleted medium” or “EDM”). […] After completion of recovery of the conditioned medium, the cells were counted using a cell counter. […] The particle size and concentration of the isolated exosomes were measured by nanoparticle tracking analysis (NTA) instrument (purchased from Malvern)."}, "[2]": {"system": "Human adipose-derived stem cells", "test": "Exosome CD63 content by flow cytometry (PE MFI against a human CD63 standard curve)", "format": "cell-based", "conditions": "CD63 content per mL; compared to the untreated control group; FIG. 3", "procedure": "Human adipose-derived stem cells were suspended in a-MEM culture medium containing 10% fetal bovine serum (FBS), 100 units/mL penicillin and 100 μg/mL streptomycin, and then seeded into a 6-well plate at a density of 6,000 cells/cm^2 and cultured in an incubator at 37° C. under 5% CO2. For ascorbic acid-treated groups, 24 hours after seeding, ascorbic acid was added to the culture medium at a concentration of 10 μg/mL, 30 μg/mL and 100 μg/mL, respectively.\nIn all of the ascorbic acid-treated groups and the untreated group, when the adipose-derived stem cells reached a confluency of 80% or more, the culture medium was replaced with α-MEM medium containing 100 units/mL penicillin and 100 μg/mL streptomycin (hereinafter referred to as “serum-free medium” or “SFM”), or α-MEM medium containing 2% FBS from which FBS-derived exosomes and extracellular vesicles have been removed, 100 units/mL penicillin and 100 μg/mL streptomycin (hereinafter referred to as “extracellular vesicles-depleted medium” or “EDM”). In the ascorbic acid-treated groups, ascorbic acid was added to each of the serum-free medium and the extracellular vesicles-depleted medium at a concentration of 10 μg/mL, 30 μg/mL and 100 μg/mL, respectively. […] After completion of recovery of the conditioned medium, the cells were counted using a cell counter. […]"}}, "data": [{"smiles": "O=C1O[C@H]([C@@H](O)CO)C(O)=C1O", "note": "[ascorbic acid]", "values": [{"measurement": "productivity (i.e., the number of exosome particles per mL)", "setting": "[1]; compared with the control group not treated with ascorbic acid, FIG. 2", "result": "increased by approximately four times or more"}, {"measurement": "particle size distribution of the exosomes", "setting": "[1]; stem cells pre-treated and cultured in medium containing ascorbic acid vs medium not containing ascorbic acid, FIG. 1 (0, 30, 100 μg/mL)", "result": "more uniform particle size distribution"}, {"measurement": "content of the exosomes (i.e., the content of CD63)", "setting": "[2]", "result": "remarkably increased"}]}]}
